{"source": "patent US20090162413A1", "about": "(priority 1998, published 2009)", "key": {"[1]": {"system": "human coronary artery endothelial cells (hCaEC)", "experiment": "3H-thymidine uptake proliferation assay, hCaEC", "assay_type": "cell-based", "details": "Homo sapiens, Endothelial cell; read-out: hCaEC IC50 Mean ± SEM", "description": "Experiments were performed to investigate interactions between zotarolimus (ABT-578) and paclitaxel when administered in combination. The effects of paclitaxel and zotarolimus on the anti-proliferative activity of human coronary artery smooth muscle ([…]) and endothelial […] determined using an in vitro proliferation assay. The proliferation and migration of vascular smooth muscle cells into the vascular neointima is a characteristic pathologic response seen in restenotic lesions (Lafont and Libby, 1998). As a result, in vitro assays which specifically measure the anti-proliferative activity of candidate anti-restenotic compounds on human coronary artery smooth muscle and endothelial cells predict potential anti-restenotic activity in vivo. To determine if paclitaxel attenuated or augmented the activity of zotarolimus the effect of paclitaxel and zotarolimus alone and in combination on growth-factor induced proliferation was determined. Data were analyzed for additivity using an isobologram approach and a combination index analysis. An isobologram is a Cartesian plot of pairs of doses that, in combination, yield a specified level of effect. It is a convenient way of graphically displaying results of drug-combination and similar studies, because paired values of experimental points that fall below or above the line connecting the axial points indicate synergistic and non-synergistic interactions, respectively. Cell proliferation was monitored by following incorporation of ^3H-thymidine into newly synthesized DNA of cells stimulated by serum and growth factors. Exponentially growing […] were seeded into 96-well flat bottom tissue culture plates at 5,000 cells/well (10,000 cells/well for […]). The cells were allowed to attach overnight. […] PerkinElmer; Wellesley; MA) was added to each filter well and the plates were counted using a TopCount microplate scintillation counter (PerkinElmer). […] The concentration eliciting a specific anti-proliferative effect was determined using a four-parameter equation (equation 1): […]"}, "[2]": {"experiment": "release of zotarolimus from 15 mm BiodivYsio drug delivery stents (Example 5)", "assay_type": "physicochemical", "details": "15 mm BiodivYsio stents", "description": "To load the stents with drug, a solution of zotarolimus in ethanol at a concentration of 50 mg/ml was prepared and dispensed into twelve vials. Twelve individual polymer-coated stents were placed on fixtures designed to hold the stent in a vertical position and the stents were immersed vertically in the drug solution for five minutes. The stents and fixtures were removed from the vials and excess drug solution was blotted away by contacting the stents with an absorbent material. The stents were then allowed to dry in air for 30 minutes in an inverted vertical position.\nThe stents were removed from the fixtures, and each stent was placed into 50/50 acetonitrile/phosphate buffer (pH 5.1, 2.0 ml) and sonicated for one hour. The stents were removed from the solution and solutions were assayed for concentration of drug, which allowed calculation of the amount of drug originally on the stents. This method was independently shown to remove at least 95% of the drug from the stent coating. On average, the stents included 120±9 micrograms of drug.\nThe drug-loaded stents were placed on the fixtures and placed into 0.01 M phosphate buffer (pH=6.0, 1.9 ml) in individual vials. These samples were placed onto a Eberbach shaker set at low speed to provide back-and-forth agitation. To avoid approaching drug saturation in the buffer, the stents were transferred periodically to fresh buffer vials at the following points: 15, 30, 45, 60, 120, 135, 150, 165, 180, 240, 390 minutes. The dissolution buffer vials were assayed by HPLC for the drug concentration at the end of the drug release period studied. The data, represented as % cumulative release of the drug as a function of time, is shown in tabular form below (Table 7): […]"}}, "data": [{"smiles": "CO[C@H]1C[C@@H]2CC[C@@H](C)[C@@](O)(O2)C(=O)C(=O)N2CCCC[C@H]2C(=O)O[C@H]([C@H](C)C[C@@H]2CC[C@H](n3cnnn3)[C@H](OC)C2)CC(=O)[C@H](C)/C=C(\\C)[C@@H](O)[C@@H](OC)C(=O)[C@H](C)C[C@H](C)/C=C/C=C/C=C/1C", "note": "[zotarolimus]", "values": [{"measurement": "IC50", "setting": "[1]", "value": "3.6 ± 0.2", "unit": "nM"}, {"measurement": "% Cumulative Release of Drug", "setting": "[2]; 0.01 M phosphate buffer pH 6.0, 15 min", "value": 0.3, "unit": "%"}, {"measurement": "% Cumulative Release of Drug", "setting": "[2]; 0.01 M phosphate buffer pH 6.0, 30 min", "value": 1.1, "unit": "%"}, {"measurement": "% Cumulative Release of Drug", "setting": "[2]; 0.01 M phosphate buffer pH 6.0, 45 min", "value": 2.1, "unit": "%"}, {"measurement": "% Cumulative Release of Drug", "setting": "[2]; 0.01 M phosphate buffer pH 6.0, 60 min", "value": 3.2, "unit": "%"}, {"measurement": "% Cumulative Release of Drug", "setting": "[2]; 0.01 M phosphate buffer pH 6.0, 120 min", "value": 4.3, "unit": "%"}, {"measurement": "% Cumulative Release of Drug", "setting": "[2]; 0.01 M phosphate buffer pH 6.0, 135 min", "value": 5.9, "unit": "%"}, {"measurement": "% Cumulative Release of Drug", "setting": "[2]; 0.01 M phosphate buffer pH 6.0, 150 min", "value": 6.3, "unit": "%"}, {"measurement": "% Cumulative Release of Drug", "setting": "[2]; 0.01 M phosphate buffer pH 6.0, 165 min", "value": 6.8, "unit": "%"}, {"measurement": "% Cumulative Release of Drug", "setting": "[2]; 0.01 M phosphate buffer pH 6.0, 180 min", "value": 7.4, "unit": "%"}, {"measurement": "% Cumulative Release of Drug", "setting": "[2]; 0.01 M phosphate buffer pH 6.0, 240 min", "value": 10.8, "unit": "%"}, {"measurement": "% Cumulative Release of Drug", "setting": "[2]; 0.01 M phosphate buffer pH 6.0, 390 min", "value": 13.2, "unit": "%"}]}]}
